Reference: ChEMBL document CHEMBL1201862, “PubChem BioAssay data set” (2004)
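48-hour exposure; five concentrations; linearly interpolated endpoints. Abbreviation: GI50, concentration required for 50% inhibition of growth.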 Calls of active or inactive are those of the source. No stated cut-off is given here; in the data, active = GI50 up to about 1.1 µM and inactive = higher.

Experiments:
Assay in all cases: NCI anticancer screen, dose series, 48 h
[1] = tested on: CAKI-1
[2] = tested on: K562
[3] = tested on: SW-620
[4] = tested on: SK-MEL-2
[5] = tested on: HCT-15
[6] = tested on: HOP-62
[7] = tested on: HL-60
[8] = tested on: COLO 205
[9] = tested on: M14
[10] = tested on: Malme-3M
[11] = tested on: SN12C
[12] = tested on: SF-295
[13] = tested on: SK-MEL-28
[14] = tested on: NCI-H522
[15] = tested on: BT-549
[16] = tested on: KM12
[17] = tested on: HCC 2998
[18] = tested on: SF-268
[19] = tested on: SR
[20] = tested on: U-251
[21] = tested on: PC-3
[22] = tested on: UO-31
[23] = tested on: MDA-MB-231
[24] = tested on: CCRF-CEM
[25] = tested on: IGROV-1
[26] = tested on: UACC-62
[27] = tested on: MCF7
[28] = tested on: A498
[29] = tested on: OVCAR-5
[30] = tested on: SF-539
[31] = tested on: ACHN
[32] = tested on: MOLT-4
[33] = tested on: RPMI-8226
[34] = tested on: NCI/ADR-RES
[35] = tested on: EKVX
[36] = tested on: SK-OV-3
[37] = tested on: SK-MEL-5
[38] = tested on: OVCAR-8
[39] = tested on: A549
[40] = tested on: HCT-116
[41] = tested on: T47D
[42] = tested on: HOP-92
[43] = tested on: OVCAR-3
[44] = tested on: MDA-N
[45] = tested on: MDA-MB-435
[46] = tested on: SNB-19
[47] = tested on: 786-0
[48] = tested on: SNB-75
[49] = tested on: HT-29
[50] = tested on: DU-145

For `CCOC(=O)/C(=C\c1cn(C(C)=O)c2ccccc12)P(C)(=O)OCC` (stereo not given), the GI50 [1] was 46.2 µM (inactive), the GI50 [2] was > 100 µM (inactive) and the GI50 [3] was 39.2 µM (inactive). The GI50 [4] was 39.8 µM (inactive), the GI50 [5] was 28.8 µM and the GI50 [6] was 33.2 µM (inactive). The GI50 [7] was > 100 µM (inactive), the GI50 [8] was 54.5 µM (inactive) and the GI50 [9] was 16.7 µM (inactive). For the same compound, the GI50 [10] was 17.3 µM (inactive), the GI50 [11] was 26.8 µM (inactive) and the GI50 [12] was 41.8 µM (inactive). For the same compound, the GI50 [13] was 64.7 µM (inactive), the GI50 [14] was 19.2 µM (inactive) and the GI50 [15] was 22.3 µM (inactive). For the same compound, the GI50 [16] was 33.1 µM (inactive), the GI50 [17] was 27.9 µM (inactive) and the GI50 [18] was 21.1 µM (inactive). The GI50 [19] was > 100 µM (inactive), the GI50 [20] was 40.1 µM (inactive) and the GI50 [21] was 52.5 µM (inactive). The GI50 [22] was 32.3 µM (inactive), the GI50 [23] was 27.4 µM (inactive) and the GI50 [24] was 57.3 µM (inactive). For the same compound, the GI50 [25] was 16.8 µM (inactive), the GI50 [26] was 60 µM (inactive) and the GI50 [27] was 32.8 µM (inactive). The GI50 [28] was 28.8 µM (inactive), the GI50 [29] was 68.7 µM (inactive) and the GI50 [30] was 19.8 µM (inactive). The GI50 [31] was 26 µM (inactive), the GI50 [32] was > 100 µM (inactive) and the GI50 [33] was > 100 µM (inactive). For the same compound, the GI50 [34] was 20.4 µM (inactive), the GI50 [35] was 33.3 µM (inactive) and the GI50 [36] was 27.1 µM (inactive). For the same compound, the GI50 [37] was 47.5 µM (inactive), the GI50 [38] was 33.4 µM (inactive) and the GI50 [39] was 37.1 µM (inactive). For the same compound, the GI50 [40] was 26.2 µM (inactive), the GI50 [41] was 37.2 µM (inactive) and the GI50 [42] was 17.2 µM (inactive). The GI50 [43] was 28.5 µM (inactive), the GI50 [44] was 24.8 µM (inactive) and the GI50 [45] was 31.8 µM (inactive). The GI50 [46] was 49.9 µM (inactive), the GI50 [47] was 39.5 µM (inactive) and the GI50 [48] was 11 µM (inactive). The GI50 [49] was 39.9 µM (inactive) and the GI50 [50] was 25.9 µM (inactive).
